Experimental findings from ChEMBL document CHEMBL1909046, “DrugMatrix in vitro pharmacology data” are described below.

Assay [1] addresses Mitogen-activated protein kinase 14 (Homo sapiens, UniProt Q16539). More on the design: species or system Escherichia coli.
The target in a further assay is Acetylcholinesterase (Homo sapiens, UniProt P22303). Put plainly: DRUGMATRIX: Acetylcholinesterase enzyme inhibition (substrate: acetylthiocholine). To be noted: Not Active = under 50% inhibition at 10 µM. The assay is classed as cell-based, HEK293.
Assay [2] addresses T1, Muscarinic acetylcholine receptor M5 (Homo sapiens, UniProt P08912).
T1 sequence (P08912 whole entry): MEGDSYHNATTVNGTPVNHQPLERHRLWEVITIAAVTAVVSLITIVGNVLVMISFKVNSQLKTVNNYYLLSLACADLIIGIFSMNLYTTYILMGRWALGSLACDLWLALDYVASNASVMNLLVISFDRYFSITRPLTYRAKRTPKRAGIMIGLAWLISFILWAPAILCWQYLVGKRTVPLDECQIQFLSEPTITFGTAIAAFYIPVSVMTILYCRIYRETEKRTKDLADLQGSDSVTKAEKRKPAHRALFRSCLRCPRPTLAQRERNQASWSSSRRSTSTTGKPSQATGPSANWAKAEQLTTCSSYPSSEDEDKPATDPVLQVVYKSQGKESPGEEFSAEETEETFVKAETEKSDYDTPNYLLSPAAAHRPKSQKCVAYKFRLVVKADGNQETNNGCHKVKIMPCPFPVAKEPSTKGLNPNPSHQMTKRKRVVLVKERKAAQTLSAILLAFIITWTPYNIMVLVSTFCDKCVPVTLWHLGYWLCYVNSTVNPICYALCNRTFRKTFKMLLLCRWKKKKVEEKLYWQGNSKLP
The assay is classed as cell membranes, CHO-K1, Membrane. Conditions: for Ki: read-out: Ki.

Assay [3] in a line: DRUGMATRIX: Glutamate, Kainate radioligand binding (ligand: [3H] Kainic acid). The assay is classed as cell membranes, Rattus norvegicus, Wistar, Brain, Membrane. Conditions: Not Active = under 50% inhibition at 10 µM.
The target in assay [4] is T2, Angiotensin-converting enzyme (Oryctolagus cuniculus, UniProt P12822).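 Further: enzymatic inhibition of angiotensin-converting enzyme measured with FAPGG as the substrate; in other assays of this panel Not Active means under 50% inhibition at 10 µM.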
T2 sequence (P12822 whole entry): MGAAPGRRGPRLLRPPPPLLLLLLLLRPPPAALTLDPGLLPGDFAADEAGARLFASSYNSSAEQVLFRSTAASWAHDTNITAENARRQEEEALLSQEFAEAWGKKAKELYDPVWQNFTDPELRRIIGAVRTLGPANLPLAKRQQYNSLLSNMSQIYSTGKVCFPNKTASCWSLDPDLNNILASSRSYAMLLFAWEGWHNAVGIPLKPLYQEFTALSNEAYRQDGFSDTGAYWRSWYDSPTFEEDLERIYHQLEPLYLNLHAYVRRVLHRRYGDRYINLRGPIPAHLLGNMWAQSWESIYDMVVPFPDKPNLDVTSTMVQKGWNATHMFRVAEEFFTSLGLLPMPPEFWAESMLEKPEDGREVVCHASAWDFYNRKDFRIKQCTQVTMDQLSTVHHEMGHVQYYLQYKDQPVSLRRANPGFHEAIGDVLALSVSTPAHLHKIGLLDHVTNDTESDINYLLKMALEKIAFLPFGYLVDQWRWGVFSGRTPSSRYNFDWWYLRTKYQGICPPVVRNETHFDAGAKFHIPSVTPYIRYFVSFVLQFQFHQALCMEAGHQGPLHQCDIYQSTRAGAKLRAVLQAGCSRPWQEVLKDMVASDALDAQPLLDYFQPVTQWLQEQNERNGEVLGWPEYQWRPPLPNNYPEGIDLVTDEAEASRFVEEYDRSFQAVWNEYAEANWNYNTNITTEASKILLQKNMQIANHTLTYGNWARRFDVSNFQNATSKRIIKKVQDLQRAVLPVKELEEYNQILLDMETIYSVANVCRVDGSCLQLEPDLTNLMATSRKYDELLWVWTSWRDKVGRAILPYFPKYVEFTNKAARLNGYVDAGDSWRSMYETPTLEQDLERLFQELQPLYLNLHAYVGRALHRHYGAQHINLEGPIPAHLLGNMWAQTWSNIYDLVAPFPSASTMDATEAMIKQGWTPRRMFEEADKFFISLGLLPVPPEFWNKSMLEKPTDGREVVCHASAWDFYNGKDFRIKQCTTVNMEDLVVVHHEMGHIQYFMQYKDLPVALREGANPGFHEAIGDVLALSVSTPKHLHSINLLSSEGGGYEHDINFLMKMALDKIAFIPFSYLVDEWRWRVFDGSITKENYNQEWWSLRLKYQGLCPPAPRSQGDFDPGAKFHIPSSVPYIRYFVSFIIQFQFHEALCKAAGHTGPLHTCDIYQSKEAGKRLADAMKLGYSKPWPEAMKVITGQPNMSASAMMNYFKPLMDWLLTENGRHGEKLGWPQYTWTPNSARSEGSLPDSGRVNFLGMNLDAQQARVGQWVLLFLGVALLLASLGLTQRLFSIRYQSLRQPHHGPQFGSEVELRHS
The assay is classed as tissue-based, Lung.

In a further assay the target is T3, Adenosine receptor A3 (Homo sapiens, UniProt P0DMS8).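 Further: radioligand binding assay with AB-MECA serving as the labeled ligand; in other assays of this panel Not Active means under 50% inhibition at 10 µM.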
T3 sequence (P0DMS8 whole entry): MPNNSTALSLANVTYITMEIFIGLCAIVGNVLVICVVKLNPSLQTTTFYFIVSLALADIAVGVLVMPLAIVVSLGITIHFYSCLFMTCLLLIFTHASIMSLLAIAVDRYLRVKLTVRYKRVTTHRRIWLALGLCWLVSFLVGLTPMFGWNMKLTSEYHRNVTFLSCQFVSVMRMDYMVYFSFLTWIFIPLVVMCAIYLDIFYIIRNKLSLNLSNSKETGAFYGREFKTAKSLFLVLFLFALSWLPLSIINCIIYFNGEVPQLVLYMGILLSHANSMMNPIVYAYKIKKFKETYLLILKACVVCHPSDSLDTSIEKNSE
The assay is classed as cell membranes, CHO-K1, Membrane. Conditions: for Ki: read-out: Ki.

Acetylcholinesterase, sequence (P22303 whole entry): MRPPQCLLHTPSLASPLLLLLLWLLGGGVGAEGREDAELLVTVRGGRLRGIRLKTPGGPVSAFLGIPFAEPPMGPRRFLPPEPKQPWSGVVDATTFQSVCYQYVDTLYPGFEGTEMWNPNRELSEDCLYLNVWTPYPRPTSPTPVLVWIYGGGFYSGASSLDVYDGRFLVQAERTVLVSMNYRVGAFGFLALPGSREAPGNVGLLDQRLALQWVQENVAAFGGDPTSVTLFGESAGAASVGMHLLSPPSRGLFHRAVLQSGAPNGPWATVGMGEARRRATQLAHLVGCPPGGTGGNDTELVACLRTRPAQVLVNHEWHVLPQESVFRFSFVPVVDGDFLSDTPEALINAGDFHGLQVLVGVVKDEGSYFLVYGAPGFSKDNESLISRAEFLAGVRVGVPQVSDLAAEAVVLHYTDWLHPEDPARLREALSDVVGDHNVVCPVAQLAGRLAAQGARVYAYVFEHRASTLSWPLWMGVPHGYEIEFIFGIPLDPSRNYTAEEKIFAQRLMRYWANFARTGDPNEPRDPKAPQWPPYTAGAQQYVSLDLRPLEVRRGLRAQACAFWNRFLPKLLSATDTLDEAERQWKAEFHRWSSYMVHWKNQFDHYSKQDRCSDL
Mitogen-activated protein kinase 14, sequence (Q16539 whole entry): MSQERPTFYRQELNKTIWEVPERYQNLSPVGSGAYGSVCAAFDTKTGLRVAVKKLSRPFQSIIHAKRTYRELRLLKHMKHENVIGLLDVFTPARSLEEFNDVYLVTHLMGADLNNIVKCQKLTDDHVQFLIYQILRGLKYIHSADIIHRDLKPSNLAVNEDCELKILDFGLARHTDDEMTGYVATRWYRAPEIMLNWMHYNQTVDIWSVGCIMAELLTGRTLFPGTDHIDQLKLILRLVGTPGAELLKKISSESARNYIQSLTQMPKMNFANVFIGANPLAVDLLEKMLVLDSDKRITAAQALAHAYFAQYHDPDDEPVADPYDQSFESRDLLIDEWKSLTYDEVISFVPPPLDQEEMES

On to `Cc1c(C)c2c(c(C)c1O)CCC(C)(CN1CCN(c3cc(N4CCCC4)nc(N4CCCC4)n3)CC1)O2` (configuration not stated), for which the IC50 – broadly, the concentration that gives 50% inhibition – in assay [1] (read-out: IC50) is 5.6 µM; against Acetylcholinesterase (hek293) it was “Not Active”; in assay [2] (cho-k1), “Not Active”; in assay [3] it was “Not Active”; in assay [4], “Not Active”; on Adenosine receptor A3 (read-out: IC50), 10.8 µM. Also, the figures for the Ki entry (in assay [3]; on Adenosine receptor A3) were “Not Active” and 6.08 µM, respectively.

With `COc1ccc(CCN(C)CCCC(C#N)(c2ccc(OC)c(OC)c2)C(C)C)cc1OC` (configuration not stated), the IC50 entry (in assay [1]; against Acetylcholinesterase (hek293); in assay [2] (cho-k1); in assay [3]; in assay [4]; at Adenosine receptor A3 (cho-k1)) was “Not Active” each time. Besides, the Ki (as a rule, the dissociation constant of the complex between target and ligand, obtained from inhibition or displacement) in assay [3] is “Not Active”.

For the compound `CC(C)Cc1ccc([C@@H](C)C(=O)O)cc1` [(R)-IBUPROPHEN], the IC50 entry (in assay [1]; at Acetylcholinesterase (hek293); in assay [2] (cho-k1); in assay [3]; in assay [4]; against Adenosine receptor A3 (cho-k1)) was “Not Active” throughout. In assay [3], the inhibitory constant (Ki) result is recorded as “Not Active”.

Turning to `CN(C)CCOC(c1ccccc1)c1ccccc1` [DIPHENHYDRAMINE], the IC50 entry (in assay [1]; against Acetylcholinesterase (hek293); in assay [4]; against Adenosine receptor A3 (cho-k1)) was “Not Active” each time.

Regarding `Clc1ccc(COC(Cn2ccnc2)c2ccc(Cl)cc2Cl)cc1` (configuration not stated) [ECONAZOLE], the concentration for half-maximal inhibition (IC50) entry is “Not Active” in assay [1], 13.7 µM on Acetylcholinesterase (read-out: IC50), “Not Active” in assay [2] (cho-k1) and “Not Active” in assay [4].

Consider `CCN(CC)CCOc1ccc(/C(=C(/Cl)c2ccccc2)c2ccccc2)cc1` [ENCLOMIPHENE], for which the IC50 entry was “Not Active” in assay [1], “Not Active” at Acetylcholinesterase (hek293), 1.77 µM in assay [2] (read-out: IC50) and “Not Active” in assay [4]. Moreover, the Ki in assay [2] came to 1.27 µM.

`Fc1ccc(C(c2ccc(F)cc2)N2CCN(C/C=C/c3ccccc3)CC2)cc1` [FLUNARIZINE]: the IC50 entry in assay [1] was “Not Active”; at Acetylcholinesterase (hek293), “Not Active”; in assay [4] it was “Not Active”; at Adenosine receptor A3 (read-out: IC50) it was 5.2 µM. Also, the Ki at Adenosine receptor A3 was determined as 2.94 µM.

For the compound `CNCCC(Oc1ccc(C(F)(F)F)cc1)c1ccccc1` (configuration not stated) [FLUOXETINE], the IC50 result (in assay [1]; on Acetylcholinesterase (hek293); in assay [4]; on Adenosine receptor A3 (cho-k1)) was “Not Active” each time.

For `Cc1ccc(NC(=O)c2ccc(CN3CCN(C)CC3)cc2)cc1Nc1nccc(-c2cccnc2)n1` [IMATINIB], the IC50 result (against Acetylcholinesterase (hek293); in assay [2] (cho-k1); in assay [4]; at Adenosine receptor A3 (cho-k1)) was “Not Active” in each case.

As to `CC(C)Oc1ccc2c(=O)c(-c3ccccc3)coc2c1` [IPRIFLAVONE], the IC50 result (in assay [1]; at Acetylcholinesterase (hek293); in assay [2] (cho-k1); in assay [3]; in assay [4]; against Adenosine receptor A3 (cho-k1)) was “Not Active” in each case. For the same compound, in assay [3], the Ki entry was “Not Active”.

Turning to `CC(C)NCC(O)c1ccc(O)c(O)c1` (configuration not stated) [ISOPROTERENOL], the IC50 result (in assay [1]; on Acetylcholinesterase (hek293); in assay [2] (cho-k1); in assay [3]; in assay [4]; at Adenosine receptor A3 (cho-k1)) was “Not Active” in each case. The Ki result in assay [3] was “Not Active”.

Consider `CNC1(c2ccccc2Cl)CCCCC1=O` (configuration not stated) [KETAMINE], for which the IC50 entry (in assay [1]; against Acetylcholinesterase (hek293); in assay [2] (cho-k1); in assay [3]; in assay [4]; against Adenosine receptor A3 (cho-k1)) was “Not Active” throughout. In addition, the Ki result in assay [3] is “Not Active”.

Turning to `N#Cc1ccc(C(c2ccc(C#N)cc2)n2cncn2)cc1` [LETROZOLE], the IC50 result (in assay [1]; at Acetylcholinesterase (hek293); in assay [2] (cho-k1); in assay [3]; in assay [4]; at Adenosine receptor A3 (cho-k1)) was “Not Active” throughout. Besides, the Ki result in assay [3] is listed as “Not Active”.

With `CCN1CCC[C@H]1CNC(=O)c1cc(S(N)(=O)=O)ccc1OC` [LEVOSULPIRIDE], the IC50 result (in assay [1]; at Acetylcholinesterase (hek293); in assay [2] (cho-k1); in assay [3]; in assay [4]; against Adenosine receptor A3 (cho-k1)) was “Not Active” each time. In addition, the Ki entry in assay [3] is recorded as “Not Active”.

As for `CCN(CC)CC(=O)Nc1c(C)cccc1C` [LIDOCAINE], the 50% inhibitory concentration (IC50) result (in assay [1]; against Acetylcholinesterase (hek293); in assay [2] (cho-k1); in assay [3]; in assay [4]; on Adenosine receptor A3 (cho-k1)) was “Not Active” throughout. Further, the Ki entry in assay [3] is “Not Active”.

`O=C1Nc2ccc(Cl)cc2C(c2ccccc2Cl)=NC1O` (configuration not stated) [LORAZEPAM]: the IC50 result (in assay [1]; on Acetylcholinesterase (hek293); in assay [2] (cho-k1); in assay [3]; in assay [4]; against Adenosine receptor A3 (cho-k1)) was “Not Active” each time. For the same compound, the Ki result in assay [3] is “Not Active”.

As for `CO[C@@H]1[C@@H](OC)[C@H](C)[C@@](O)(CC(=O)O)O[C@H]1[C@H](C)[C@H]1O[C@@]2(CC[C@@](C)([C@H]3CC[C@@](C)([C@@H]4O[C@@H]([C@H]5O[C@](C)(O)[C@H](C)C[C@@H]5C)C[C@@H]4O[C@@H]4C[C@H](OC)[C@@H](OC)[C@H](C)O4)O3)O2)C[C@H](O)[C@H]1C` [MADURAMICIN ACID], the IC50 result (in assay [1]; against Acetylcholinesterase (hek293); in assay [2] (cho-k1); in assay [3]; in assay [4]; at Adenosine receptor A3 (cho-k1)) was “Not Active” each time. Besides, the Ki result in assay [3] is “Not Active”.

Take `COc1c2occc2cc2ccc(=O)oc12` [METHOXSALEN]: the IC50 result (in assay [1]; at Acetylcholinesterase (hek293); in assay [2] (cho-k1); in assay [3]; in assay [4]; on Adenosine receptor A3 (cho-k1)) was “Not Active” in each case. In addition, in assay [3], the Ki result was “Not Active”.

Take `CN[C@H]1CC[C@@H](c2ccc(Cl)c(Cl)c2)c2ccccc21` [SERTRALINE]: the IC50 entry in assay [1] was “Not Active”; against Acetylcholinesterase (hek293) it was “Not Active”; in assay [2] (read-out: IC50) it was 0.507 µM; in assay [4], “Not Active”; against Adenosine receptor A3 (cho-k1), “Not Active”. For the same compound, the Ki in assay [2] came out at 0.365 µM.
